The target in one assay is T1, Human FXIIa (Homo sapiens, UniProt P00748).
T1 construct: active coagulation factor XII (FXIIa); purchased Enzyme Research Labs
T1 sequence (P00748 373-615 limits assumed): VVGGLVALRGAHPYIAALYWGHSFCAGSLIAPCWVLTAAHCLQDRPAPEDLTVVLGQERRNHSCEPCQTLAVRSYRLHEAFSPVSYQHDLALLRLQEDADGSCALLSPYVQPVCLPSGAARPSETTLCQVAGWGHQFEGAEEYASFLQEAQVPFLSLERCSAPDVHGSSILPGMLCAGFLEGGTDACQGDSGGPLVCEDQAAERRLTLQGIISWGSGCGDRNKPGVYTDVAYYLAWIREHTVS
T1 sequence (P00748 20-372 partner limits assumed): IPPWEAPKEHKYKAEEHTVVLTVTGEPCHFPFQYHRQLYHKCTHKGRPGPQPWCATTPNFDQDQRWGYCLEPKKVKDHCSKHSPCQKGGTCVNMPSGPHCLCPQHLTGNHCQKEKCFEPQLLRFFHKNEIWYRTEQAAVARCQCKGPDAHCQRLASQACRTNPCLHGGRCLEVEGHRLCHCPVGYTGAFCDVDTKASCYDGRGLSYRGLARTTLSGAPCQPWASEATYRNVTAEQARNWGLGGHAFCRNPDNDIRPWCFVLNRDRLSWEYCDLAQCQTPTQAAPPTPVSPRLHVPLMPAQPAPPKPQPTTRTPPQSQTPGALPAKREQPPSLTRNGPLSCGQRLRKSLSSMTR
Briefly: Factor XIIa (FXIIa) inhibitory activity, chromogenic substrate assay. The class given is biochemical. Particulars: Human FXIIa 12.5 nM, Pefachrome XIIa 400 μM, 10 min preincubation. In outline: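 Buffer was 0.5× HBSS with 25 mM HEPES pH 7.4 and 0.5× TBS-Tween 0.05%. Enzyme and compound (about 1–100 μM) were preincubated 10 min at room temperature, then Pefachrome XIIa was added at 400 μM final. Substrate cleavage was followed as the rate of A405 change at 37 °C.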

Another assay concerns the target T2, Human alpha-thrombin (Homo sapiens, UniProt P00734).
T2 construct: Human alpha-thrombin (Enzyme Research Labs); purchased Enzyme Research Labs
Briefly: Thrombin counterscreen for selectivity, fluorogenic substrate assay. The class given is biochemical. The following applies: Human alpha-thrombin 12.5 nM, Boc-Val-Pro-Arg-AMC 20 μM, 10 min preincubation. In outline:
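Compounds, about 1–100 μM, preincubated 10 min at room temperature with enzyme, then Boc-Val-Pro-Arg-AMC added at 20 μM final.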

On to `Cc1sc2ccccc2c1C(=O)n1nc2c(c1N)CCCC2` (single isomer, unassigned) [Example 23, (3-Amino-4,5,6,7-tetrahydroindazol-2-yl)(2-methylbenzo[b]thiophen-3-yl)methanone], for which the figures for the IC50 at Human FXIIa and on Human alpha-thrombin were 5 µM and over 100 µM, respectively.
As for `CCc1cc2c(C(=O)n3nc4c(c3N)CCCC4)cccc2[nH]1` [Example 50, (3-amino-4,5,6,7-tetrahydroindazol-2-yl)(2-ethyl-1H-indol-4-yl)methanone], the values for the IC50 against Human FXIIa and against Human alpha-thrombin were 0.01 µM and 25 µM, respectively.
The corresponding values for `Nc1c2c(nn1C(=O)c1cccc3[nH]cnc13)CCCC2` [Example 48, (3-amino-4,5,6,7-tetrahydroindazol-2-yl)(1H-benzo[d]imidazol-4-yl)methanone] are over 100 µM and over 100 µM.
The matching figures for `Nc1c2c(nn1C(=O)[C@H]1CCNc3ccc(F)cc31)C[C@H](O)CC2` (single isomer, unassigned) [Example 185, ((6R*)-3-amino-6-hydroxy-4,5,6,7-tetrahydroindazol-2-yl)((4S*)-6-fluoro-1,2,3,4-tetrahydroquinolin-4-yl)methanone]: 0.07 µM and over 100 µM.
`Cc1c2c(nn1C(=O)c1cccc3[nH]ccc13)CCCC2` (single isomer, unassigned) [Example 3, (1H-Indol-4-yl)(3-methyl-4,5,6,7-tetrahydroindazol-2-yl)methanone]: the figures for the IC50 against Human FXIIa and at Human alpha-thrombin were 5 µM and 33 µM, respectively.
The corresponding values for `CCc1cc2c(C(=O)n3nc(N)c4c3CCCC4)cccc2n1CC` (single isomer, unassigned) [Example 69, (3-amino-4,5,6,7-tetrahydroindazol-1-yl)(1,2-diethyl-1H-indol-4-yl)methanone] are 35 µM and over 100 µM.
The matching figures for `O=C(Nc1[nH]nc2c1CCCC2)C1OCCc2ccccc21` (stereo not shown) [Example 14, N-(4,5,6,7-tetrahydro-2H-indazol-3-yl)isochroman-1-carboxamide]: over 10 µM and over 10 µM.
As for `CCc1csc(C)c1C(=O)n1nc2c(c1N)CCCC2` (single isomer, unassigned) [Example 18, (3-Amino-4,5,6,7-tetrahydroindazol-2-yl)(4-ethyl-2-methylthiophen-3-yl)methanone], the figures for the IC50 on Human FXIIa and at Human alpha-thrombin were 5 µM and over 100 µM, respectively.
Consider `Nc1nn(C(=O)[C@@H]2CCNc3ccccc32)c2c1C[C@@H](O)CC2` (single isomer, unassigned) [Example 172, ((5S*)-3-amino-5-hydroxy-4,5,6,7-tetrahydroindazol-1-yl)((4R*)-1,2,3,4-tetrahydroquinolin-4-yl)methanone], for which the IC50 on Human FXIIa and against Human alpha-thrombin was over 100 µM in each case.
For the compound `Nc1nn(C(=O)C2CCNc3ccccc32)c2ccccc12` (stereo not shown) [Example 77, (3-amino-1H-indazol-1-yl)(1,2,3,4-tetrahydroquinolin-4-yl)methanone], the IC50 against Human FXIIa and on Human alpha-thrombin was over 100 µM in each case.
For `Cc1cc2c(C(=O)n3nc4c(c3N)CC(O)CC4)cccc2[nH]1` (stereo not shown) [Example 161], the IC50 at Human FXIIa is 0.06 µM; against Human alpha-thrombin, over 100 µM.
The matching figures for `Nc1c2c(nn1C(=O)c1cccc3[nH]c(Br)cc13)CCCC2` (single isomer, unassigned) [Example 62, (3-amino-4,5,6,7-tetrahydroindazol-2-yl)(2-bromo-1H-indol-4-yl)methanone]: 0.01 µM and 20 µM.
Turning to `Nc1c2c(nn1C(=O)[C@H]1CCNc3ccc(F)cc31)CC[C@H](F)C2` (single isomer, unassigned) [Example 140, ((5S*)-3-amino-5-fluoro-4,5,6,7-tetrahydroindazol-2-yl)((4S*)-6-fluoro-1,2,3,4-tetrahydroquinolin-4-yl)methanone], the IC50 on Human FXIIa was 0.2 µM; against Human alpha-thrombin, over 60 µM.
The matching figures for `Nc1nn(C(=O)c2ccnc3cc(Cl)ccc23)c2c1CCCC2` [Example 124, (3-amino-4,5,6,7-tetrahydro-2H-indazol-1-yl)(7-chloroquinolin-4-yl)methanone]: 60 µM and 60 µM.
Take `COC1CCc2c(c(N)nn2C(=O)c2cccc3[nH]c(C)cc23)C1` (stereo not shown) [Example 120, (3-amino-5-methoxy-4,5,6,7-tetrahydro-2H-indazol-1-yl)(2-methyl-1H-indol-4-yl)methanone]: the results for the IC50 against Human FXIIa and on Human alpha-thrombin were 10 µM and over 80 µM, respectively.
The corresponding values for `Nc1c2c(nn1C(=O)[C@H]1CCNc3ccccc31)CC[C@@H](O)C2` (single isomer, unassigned) [Example 165, ((5R*)-3-amino-5-hydroxy-4,5,6,7-tetrahydroindazol-2-yl)((4S*)-1,2,3,4-tetrahydroquinolin-4-yl)methanone] are 0.35 µM and over 80 µM.
In the case of `CCn1c(C)c(C(=O)n2nc3c(c2N)CCCC3)c2ccccc21` [Example 45, (3-amino-4,5,6,7-tetrahydroindazol-2-yl)(1-ethyl-2-methyl-1H-indol-3-yl)methanone], the IC50 against Human FXIIa is 12 µM; against Human alpha-thrombin it was over 100 µM.
The corresponding values for `CCC(C)n1ccc2c(C(=O)n3nc4c(c3N)CCCC4)cccc21` (stereo not shown) [Example 37, (3-amino-4,5,6,7-tetrahydroindazol-2-yl)(1-sec-butyl-1H-indol-4-yl)methanone] are 2.5 µM and over 75 µM.
The matching figures for `Cc1csc(C)c1C(=O)n1nc(N)c2c1CCCC2` (single isomer, unassigned) [Example 17, (3-amino-4,5,6,7-tetrahydroindazol-1-yl)(2,4-dimethylthiophen-3-yl)methanone]: over 100 µM and over 100 µM.
The matching figures for `Nc1c2c(nn1C(=O)[C@H]1CCNc3ccc(F)cc31)CC[C@@H](F)C2` (single isomer, unassigned) [Example 137, ((5R*)-3-amino-5-fluoro-4,5,6,7-tetrahydroindazol-2-yl)((4S*)-6-fluoro-1,2,3,4-tetrahydroquinolin-4-yl)methanone]: 0.06 µM and 29 µM.

The values are drawn from patent US10538512B2, “Aminoacylindazole immunomodulators for treatment of autoimmune diseases” (The Rockefeller University, priority 2016, dated 2020).
